This note sets out measurements from patent US7863308B2, “Substituted thiophenes” (Auspex Pharmaceuticals, Inc., priority 2007, dated 2011).

One series deals with CYP2C9 (Homo sapiens, UniProt P11712). As to the kind of experiment: In vitro inhibition of human cytochrome P450 enzymes: CYP2C9 (dibenzylfluorescein fluorometric assay). As to the method: (§1) In Vitro Inhibition of Human Cytochrome P45 Enzymes
(§2) Solution A: NADPH-Regenerating System
(§3) To a glass tube on ice were added sequentially: Water (8 mL) in NADP+ (20 mg), glucose-6-phosphate (20 mg), magnesium chloride hexahydrate (13.3 mg) and glucose-6-phosphate dehydrogenase (60 units).
To a glass tube on ice were added sequentially: 0.5 M KH2PO4 (pH 7.4, 2.4 mL), water (8.988 mL), CYP2C9 (600 μL of 1 picomol/microliter), and dibenzylfluorescein (2 mM in 100% acetonitrile, 12 microliter).
Solution A was transferred to a 96-well black plate (80 microliter per well), followed by various concentrations of a solution of Compound in 10% acetonitrile-water (20 microliter per well). The reaction was initiated by adding 100 microliter of solution B to each well of the 96-well plate. The plate was incubated for 40 minutes at 37° C. in the dark. The reaction was stopped by adding 75 microliters of stop buffer (2 N NaOH) to each well, and incubating at 37° C. for 2 hours. The end point was measured in a fluorometer plate reader at λex=485 nm and λem=538 nm.

The target in a further series is CYP3A4 (Homo sapiens, UniProt P08684). Conditions: 10 min, pH 7.4. As to the method:
as §1, §2, §3
To a glass tube on ice were added sequentially: 0.5 M KH2PO4 (pH 7.4, 9.6 mL), water (2.328 mL), CYP3A4 (60 μL of 1 picomol/microliter), and dibenzylfluorescein (2 mM in 100% acetonitrile, 12 microliter).
Solution A was transferred to a 96-well black plate (80 microliter per well), followed by various concentrations of a solution of Compound in 20% acetonitrile-water (20 microliter per well). The reaction was initiated by adding 100 microliter of solution B to each well of the 96-well plate. The plate was incubated for 10 minutes at 37° C. in the dark. […] The end point was measured in a fluorometer plate reader at λex=485 nm and λem=538 nm.

pIC50: −log10 of the molar value.

CYP2C9, sequence (P11712 whole entry): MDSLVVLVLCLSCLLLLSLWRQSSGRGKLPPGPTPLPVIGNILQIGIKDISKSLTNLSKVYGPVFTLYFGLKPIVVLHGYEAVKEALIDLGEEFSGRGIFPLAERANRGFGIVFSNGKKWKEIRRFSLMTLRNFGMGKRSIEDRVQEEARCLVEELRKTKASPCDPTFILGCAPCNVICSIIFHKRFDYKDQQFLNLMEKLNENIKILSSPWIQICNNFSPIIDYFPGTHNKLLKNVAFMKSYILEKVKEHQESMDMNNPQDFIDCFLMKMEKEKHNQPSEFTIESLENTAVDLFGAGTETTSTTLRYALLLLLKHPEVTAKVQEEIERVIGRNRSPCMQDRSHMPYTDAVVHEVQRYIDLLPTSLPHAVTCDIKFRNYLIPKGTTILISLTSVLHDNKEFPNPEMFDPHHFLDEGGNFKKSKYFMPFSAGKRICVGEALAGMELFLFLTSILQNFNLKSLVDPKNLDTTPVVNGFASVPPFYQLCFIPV
CYP3A4, sequence (P08684 whole entry): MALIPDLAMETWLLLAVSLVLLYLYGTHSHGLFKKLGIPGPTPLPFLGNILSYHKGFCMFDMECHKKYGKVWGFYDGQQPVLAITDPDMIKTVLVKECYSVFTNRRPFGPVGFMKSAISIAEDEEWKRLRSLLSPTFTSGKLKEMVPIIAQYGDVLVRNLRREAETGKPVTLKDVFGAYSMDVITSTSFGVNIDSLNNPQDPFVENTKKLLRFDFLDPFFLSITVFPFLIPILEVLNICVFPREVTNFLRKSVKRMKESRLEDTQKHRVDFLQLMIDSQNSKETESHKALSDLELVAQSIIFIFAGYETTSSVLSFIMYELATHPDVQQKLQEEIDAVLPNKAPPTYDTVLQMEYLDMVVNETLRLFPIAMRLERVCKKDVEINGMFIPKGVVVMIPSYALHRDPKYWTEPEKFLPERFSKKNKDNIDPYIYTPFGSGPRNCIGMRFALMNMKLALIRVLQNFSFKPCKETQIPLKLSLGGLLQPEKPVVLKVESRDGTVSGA

`Cc1cc2c(cc1CC(=O)c1sccc1S(=O)(=O)Nc1onc(C)c1Cl)OCO2` [sixtaxsentan, 2-[2-(6-Methyl-benzo[1,3]dioxol-5-yl)-acetyl]-thiophene-3-sulfonic acid (4-chloro-3-methyl-isoxazol-5-yl)-amide, reference compound] gave a pIC50 against CYP2C9 of 7.00.
On to `[2H]C1([2H])Oc2cc(C)c(CC(=O)c3sccc3S(=O)(=O)Nc3onc(C)c3Cl)cc2O1` [Example 2, d2-2-[2-(6-Methyl-benzo[1,3]dioxol-5-yl)-acetyl]-thiophene-3-sulfonic acid (4-chloro-3-methyl-isoxazol-5-yl)-amide], for which, on CYP2C9, the pIC50 is 6.49. The “times the amount of deuterated compound to inhibit CYP2C9 as compared to the non-isotopically enriched drug” value on CYP2C9 (human, 40 min, pH 7.4) is listed as 3.2 times. The “times the amount of deuterated compound to inhibit CYP3A4 as compared to the non-isotopically enriched drug” value at CYP3A4 worked out at 2.3 times.
